Reference: US10584117B2, “1,3,4-oxadiazole amide derivative compound as histone deacetylase 6 inhibitor, and pharmaceutical composition containing same” (Chong Kun Dang Pharmaceutical Corp., priority 2015, dated 2020)
pIC50: −log10 of the molar value.

Biological target: T1, human recombinant HDAC6 (Homo sapiens, UniProt Q9UBN7)
T1 construct: purchased Calbiochem 382180
T1 sequence (Q9UBN7 1-1215): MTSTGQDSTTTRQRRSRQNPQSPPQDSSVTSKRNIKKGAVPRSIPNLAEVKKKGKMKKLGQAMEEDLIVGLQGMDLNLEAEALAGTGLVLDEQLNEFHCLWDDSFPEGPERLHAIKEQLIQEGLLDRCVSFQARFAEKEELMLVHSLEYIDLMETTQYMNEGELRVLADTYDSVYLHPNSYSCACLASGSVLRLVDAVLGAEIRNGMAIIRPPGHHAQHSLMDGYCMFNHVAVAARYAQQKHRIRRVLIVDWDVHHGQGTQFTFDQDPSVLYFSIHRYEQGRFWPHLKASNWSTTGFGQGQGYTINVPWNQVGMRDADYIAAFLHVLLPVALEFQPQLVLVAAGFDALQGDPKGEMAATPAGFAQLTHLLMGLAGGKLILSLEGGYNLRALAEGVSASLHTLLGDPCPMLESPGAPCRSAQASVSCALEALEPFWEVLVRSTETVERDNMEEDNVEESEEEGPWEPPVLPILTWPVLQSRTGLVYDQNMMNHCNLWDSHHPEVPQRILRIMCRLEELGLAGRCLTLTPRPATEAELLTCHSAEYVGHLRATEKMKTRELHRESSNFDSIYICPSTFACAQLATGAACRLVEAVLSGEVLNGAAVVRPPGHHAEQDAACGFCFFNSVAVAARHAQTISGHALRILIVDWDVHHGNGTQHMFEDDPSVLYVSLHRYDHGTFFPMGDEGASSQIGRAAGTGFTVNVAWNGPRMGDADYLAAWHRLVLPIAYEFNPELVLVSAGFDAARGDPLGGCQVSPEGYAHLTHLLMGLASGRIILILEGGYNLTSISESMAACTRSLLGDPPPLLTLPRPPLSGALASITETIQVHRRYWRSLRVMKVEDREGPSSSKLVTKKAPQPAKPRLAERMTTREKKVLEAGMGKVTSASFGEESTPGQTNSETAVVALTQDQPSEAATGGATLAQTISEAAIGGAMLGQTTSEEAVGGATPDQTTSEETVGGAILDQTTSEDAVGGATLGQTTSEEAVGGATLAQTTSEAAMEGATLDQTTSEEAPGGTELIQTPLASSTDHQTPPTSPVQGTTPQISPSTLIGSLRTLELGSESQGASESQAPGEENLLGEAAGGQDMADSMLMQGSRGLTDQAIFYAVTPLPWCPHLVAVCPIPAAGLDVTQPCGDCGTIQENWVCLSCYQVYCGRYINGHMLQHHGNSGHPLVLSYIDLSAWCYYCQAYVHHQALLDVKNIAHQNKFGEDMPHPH
Experiment: HDAC enzyme activity inhibition assay (HDAC6, fluorimetric kit)
Format: biochemical
Settings: for HDAC6 selectivity (fold): HDAC6 versus HDAC1; for pIC50: same protocol as the HDAC1 test
Protocol: In order to examine the HDAC6 selectivity of the compounds of formula I of the present invention by HDAC1 and HDAC6 enzymatic activity inhibition assays, an experiment was performed using a conventional substance as a control. HDAC enzyme activity was measured using a HDAC Fluorimetric Drug Discovery Kit (BML-AK511, 516) from Enzo Life Science. For the HDAC1 enzyme activity test, human recombinant HDAC1 (BML-SE456) was used as an enzyme source, and Fluor de Lys®-“SIRT1 (BNL-KI177) was used as a substrate. A 5-fold dilution of the compound was seeded into a 96-well plate, and then 0.3 μg of the enzyme and 10 μM of the substrate were added to each well of the plate and allowed to react at 30° C. for 60 minutes. Then, Fluor de Lys®-Developer II (BML-KI176) was added thereto and allowed to react for 30 minutes, after which the fluorescence value (Ex 360, Em 460) was measured using a multi-plate reader (Flexstation 3, Molecular Device). The HDAC6 enzyme was tested using human recombinant HDAC6 (382180) from Calbiochem, according to the same protocol as the HDAC1 enzyme activity test method. Based on the resulting values, each IC50 value was calculated using GraphPad Prism4.0 program.

`CC(=O)N(Cc1ccc(-c2nnc(C(F)F)o2)cc1F)c1cccc(F)c1` [Compound 11339, N-(4-(5-(difluoromethyl)-1,3,4-oxadiazol-2-yl)-2-fluorobenzyl)-N-(3-fluorophenyl)acetamide] was tested, and the “HDAC6 selectivity (fold)” value was 2041 fold and the pIC50 was 7.31.

`O=C(c1ccncc1)N(Cc1ccc(-c2nnc(C(F)F)o2)cc1F)c1cccc(F)c1` [Compound 11189, N-(4-(5-(difluoromethyl)-1,3,4-oxadiazol-2-yl)-2-fluorobenzyl)-N-(3-fluorophenyl)isonicotinamide] was tested, and the “HDAC6 selectivity (fold)” value was 2564 fold and the pIC50 was 7.41.

With `CCN1CC(C(=O)N(Cc2ccc(-c3nnc(C(F)F)o3)cc2F)c2ccccc2)C1` [Compound 11239, N-(4-(5-(difluoromethyl)-1,3,4-oxadiazol-2-yl)-2-fluorobenzyl)-1-ethyl-N-phenylazetidine-3-carboxamide] the “HDAC6 selectivity (fold)” value was 3846 fold and the pIC50 was 7.59.

In the case of `CC(C)C(=O)N1CC(C(=O)N(Cc2ccc(-c3nnc(C(F)F)o3)cc2F)c2ccccc2)C1` [Compound 11243, N-(4-(5-(difluoromethyl)-1,3,4-oxadiazol-2-yl)-2-fluorobenzyl)-1-isobutyryl-N-phenylazetidine-3-carboxamide], the “HDAC6 selectivity (fold)” value was 3125 fold and the pIC50 was 7.49.

For `O=C(c1ccncc1)N(Cc1ccc(-c2nnc(C(F)F)o2)cn1)c1cccc(F)c1` [Compound 11360, N-((5-(5-(difluoromethyl)-1,3,4-oxadiazol-2-yl)pyridin-2-yl)methyl)-N-(3-fluorophenyl)isonicotinamide], the “HDAC6 selectivity (fold)” value was 3125 fold and the pIC50 was 7.49.

`CC(C)C(=O)N1CC(C(=O)N(Cc2ccc(-c3nnc(C(F)F)o3)cc2F)c2cccc(F)c2)C1` [Compound 11332, N-(4-(5-(difluoromethyl)-1,3,4-oxadiazol-2-yl)-2-fluorobenzyl)-N-(3-fluorophenyl)-1-isobutyrylazetidine-3-carboxamide] was tested, and the “HDAC6 selectivity (fold)” value was 2326 fold and the pIC50 was 7.37.

In the case of `O=C(C1CCCCC1)N(Cc1ccc(-c2nnc(C(F)(F)F)o2)cc1)c1ccccc1` [Compound 11106, N-phenyl-N-(4-(5-(trifluoromethyl)-1,3,4-oxadiazol-2-yl)benzyl)cyclohexanecarboxamide], the “HDAC6 selectivity (fold)” value was 77 fold and the pIC50 was 5.89.

`O=C(C1CC1)N1CCN(CC(=O)N(Cc2ccc(-c3nnc(C(F)F)o3)cc2F)c2ccc(F)c(Cl)c2)CC1` [Compound 11612, N-(3-chloro-4-fluorophenyl)-2-(4-(cyclopropanecarbonyl)piperazin-1-yl)-N-(4-(5-(difluoromethyl)-1,3,4-oxadiazol-2-yl)-2-fluorobenzyl)acetamide] was tested, and the “HDAC6 selectivity (fold)” value was 535 fold and the pIC50 was 6.73.

In the case of `CS(=O)(=O)N1CCC(C(=O)N(Cc2ccc(-c3nnc(C(F)F)o3)cc2F)c2ccccc2)CC1` [Compound 11215, N-(4-(5-(difluoromethyl)-1,3,4-oxadiazol-2-yl)-2-fluorobenzyl)-1-(methylsulfonyl)-N-phenylpiperidine-4-carboxamide], the “HDAC6 selectivity (fold)” value was 1667 fold and the pIC50 was 7.22.

For `CC(=O)N1CC(C(=O)N(Cc2ccc(-c3nnc(C(F)F)o3)cc2F)c2cccc(F)c2)C1` [Compound 11330, 1-acetyl-N-(4-(5-(difluoromethyl)-1,3,4-oxadiazol-2-yl)-2-fluorobenzyl)-N-(3-fluorophenyl)azetidine-3-carboxamide], the “HDAC6 selectivity (fold)” value was 1961 fold and the pIC50 was 7.29.

`CC(=O)N(Cc1ccc(-c2nnc(C(F)(F)F)o2)cc1F)c1cccc(F)c1` [Compound 11340, N-(2-fluoro-4-(5-(trifluoromethyl)-1,3,4-oxadiazol-2-yl)benzyl)-N-(3-fluorophenyl)acetamide] was tested, and the “HDAC6 selectivity (fold)” value was 1087 fold and the pIC50 was 7.04.

`O=C(c1ccncc1)N(Cc1ccc(-c2nnc(C(F)(F)F)o2)cn1)c1cccc(F)c1` [Compound 11359, N-(3-fluorophenyl)-N-((5-(5-(trifluoromethyl)-1,3,4-oxadiazol-2-yl)pyridin-2-yl)methyl)isonicotinamide] was tested, and the “HDAC6 selectivity (fold)” value was 2941 fold and the pIC50 was 7.47.

With `CS(=O)(=O)N1CCC(C(=O)N(Cc2ccc(-c3nnc(C(F)(F)F)o3)cc2F)c2ccccc2)CC1` [Compound 11207, N-(2-fluoro-4-(5-(trifluoromethyl)-1,3,4-oxadiazol-2-yl)benzyl)-1-(methylsulfonyl)-N-phenylpiperidine-4-carboxamide] the “HDAC6 selectivity (fold)” value was 813 fold and the pIC50 was 6.91.

For `CCN1CCC(C(=O)N(Cc2ccc(-c3nnc(C(F)(F)F)o3)cc2F)c2ccccc2)CC1` [Compound 11201], the “HDAC6 selectivity (fold)” value was 877 fold and the pIC50 was 6.94.

In the case of `O=C(c1ccncc1)N(Cc1ccc(-c2nnc(C(F)F)o2)cc1)c1ccccc1` [Compound 11108, N-(4-(5-(difluoromethyl)-1,3,4-oxadiazol-2-yl)benzyl)-N-phenylisonicotinamide], the “HDAC6 selectivity (fold)” value was 1695 fold and the pIC50 was 7.23.

`O=C(CN1CC[C@H](O)C1)N(Cc1ccc(-c2nnc(C(F)F)o2)cc1F)c1ccc(F)c(Cl)c1` [Compound 11536, (S)-N-(3-chloro-4-fluorophenyl)-N-(4-(5-(difluoromethyl)-1,3,4-oxadiazol-2-yl)-2-fluorobenzyl)-2-(3-hydroxypyrrolidin-1-yl)acetamide] was tested, and the “HDAC6 selectivity (fold)” value was 1042 fold and the pIC50 was 7.02.

For `CC(C)N1CCC(C(=O)N(Cc2ccc(-c3nnc(C(F)(F)F)o3)cc2F)c2ccccc2)CC1` [Compound 11202, N-(2-fluoro-4-(5-(trifluoromethyl)-1,3,4-oxadiazol-2-yl)benzyl)-1-isopropyl-N-phenylpiperidine-4-carboxamide], the “HDAC6 selectivity (fold)” value was 735 fold and the pIC50 was 6.87.

`CCC(=O)N1CC(C(=O)N(Cc2ccc(-c3nnc(C(F)(F)F)o3)cc2)c2ccccc2)C1` [Compound 11157, N-phenyl-1-propionyl-N-(4-(5-(trifluoromethyl)-1,3,4-oxadiazol-2-yl)benzyl)azetidine-3-carboxamide] was tested, and the “HDAC6 selectivity (fold)” value was 1111 fold and the pIC50 was 7.05.

`CCN1CCC(C(=O)N(Cc2ccc(-c3nnc(C(F)(F)F)o3)cc2)c2ccccc2)CC1` [Compound 11141, 1-ethyl-N-phenyl-N-(4-(5-(trifluoromethyl)-1,3,4-oxadiazol-2-yl)benzyl)piperidine-4-carboxamide] was tested, and the “HDAC6 selectivity (fold)” value was 306 fold and the pIC50 was 6.49.

For `O=C(CN1CCCC1)N(Cc1ccc(-c2nnc(C(F)F)o2)cc1F)c1ccc(F)c(Cl)c1` [Compound 11534, N-(3-chloro-4-fluorophenyl)-N-(4-(5-(difluoromethyl)-1,3,4-oxadiazol-2-yl)-2-fluorobenzyl)-2-(pyrolidin-1-yl)acetamide], the “HDAC6 selectivity (fold)” value was 1370 fold and the pIC50 was 7.14.

For `CC(C)C(=O)N1CC(C(=O)N(Cc2ccc(-c3nnc(C(F)(F)F)o3)cc2)c2ccccc2)C1` [Compound 11158, 1-isobutyryl-N-phenyl-N-(4-(5-(trifluoromethyl)-1,3,4-oxadiazol-2-yl)benzyl)azetidine-3-carboxamide], the “HDAC6 selectivity (fold)” value was 1111 fold and the pIC50 was 7.05.

With `CC(C)(C)OC(=O)N1CC(C(=O)N(Cc2ccc(-c3nnc(C(F)(F)F)o3)cc2)c2ccccc2)C1` [Compound 11134, tert-butyl 3-(phenyl(4-(5-(trifluoromethyl)-1,3,4-oxadiazol-2-yl)benzyl)carbamoyl)azetidine-1-carboxylate] the “HDAC6 selectivity (fold)” value was 109 fold and the pIC50 was 6.04.
